# In BindingDB's records for doi:10.1021/acs.biochem.6b00338 (University of California Santa Cruz, 2016):
# Molecular target: T1, Arachidonate 15-lipoxygenase (Pseudomonas aeruginosa, UniProt Q9I4G8)
# T1 sequence (Q9I4G8 whole entry): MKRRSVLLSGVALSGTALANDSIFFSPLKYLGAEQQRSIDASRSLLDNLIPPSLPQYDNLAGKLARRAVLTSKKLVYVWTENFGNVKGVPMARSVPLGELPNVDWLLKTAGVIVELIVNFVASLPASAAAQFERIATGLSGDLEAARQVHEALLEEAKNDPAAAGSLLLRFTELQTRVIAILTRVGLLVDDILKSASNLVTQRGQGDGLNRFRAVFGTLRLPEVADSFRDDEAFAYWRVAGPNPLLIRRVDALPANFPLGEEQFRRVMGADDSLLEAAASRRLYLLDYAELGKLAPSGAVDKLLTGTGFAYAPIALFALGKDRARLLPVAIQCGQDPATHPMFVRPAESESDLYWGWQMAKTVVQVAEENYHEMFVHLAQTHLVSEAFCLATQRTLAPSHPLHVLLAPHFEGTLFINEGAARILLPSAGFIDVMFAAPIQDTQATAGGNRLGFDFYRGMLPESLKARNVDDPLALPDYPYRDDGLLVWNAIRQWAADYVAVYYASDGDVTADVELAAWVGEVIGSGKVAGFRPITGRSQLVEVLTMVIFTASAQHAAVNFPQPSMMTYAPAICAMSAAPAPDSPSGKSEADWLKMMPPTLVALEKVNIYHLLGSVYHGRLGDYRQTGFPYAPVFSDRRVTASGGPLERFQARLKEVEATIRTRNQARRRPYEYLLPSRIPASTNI
# Assay: LoxA Selectivity Assay
# Details: pH 7; 25 °C
# Procedure: The one-point inhibition percentages were determined for human LOX inhibitors by following the formation of the conjugated diene product at 234 nm (ε = 25,000 M−1 cm−1) at an inhibitor concentration of 25 μM. All reaction mixtures were 2 mL in volume and constantly stirred using a magnetic stir bar at room temperature (22 °C) with 7 nM LoxA. Reactions were conducted in 25 mM HEPES buffer (pH 7.0), 0.01% Triton X-100, and 10 μM AA. The concentration of AA was quantitatively determined by allowing the enzymatic reaction to go to completion. Confirmed hitswere then screened against the human isozymes 5-LOX, 15-LOX-1, 15-LOX-2, and 12-LOX for specificity.
row,IC50 [nM],SMILES
1,10,"O=C(OCC#CCSc1nnc(-c2cccc3ccccc23)o1)c1ccccc1 [4-(5-(Naphthalen-1-yl)-1,3,4-oxadiazol-2-ylthio)but-2-ynyl benzoate]"
2,500,"CC(Cc1ccc(O)c(O)c1)C(C)Cc1ccc(O)c(O)c1 (stereo not given) [LOX inhibitor, N/A]"
3,2600,CCCCCCc1ccc(Oc2ccccc2Cl)c(O)c1 [PT91]
4,1000,CCCCCCc1ccc(Oc2ccccc2F)c(O)c1 [PT113]
5,520,CCCCCCc1ccn(Cc2ccccc2C)c(=O)c1 [PT171]
